Molecular target: T1, LjG10H (geraniol 10-hydroxylase) (Lonicera japonica, UniProt U5NH25)
T1 construct: pET32a, N-terminal TRX/His tag kept (band about 72 kDa), E. coli BL21, Ni column
Assay: HPLC detection of 10-hydroxygeraniol formed by purified recombinant protein
Type: biochemical
Settings: 2.5 mmol/L geraniol, 1 mmol/L NADPH with glucose-6-phosphate / G6PDH, FAD, FMN, EDTA, DTT, potassium phosphate pH 7.6, 30 °C, 3 h; no P450 reductase mentioned

T1 sequence (U5NH25 entry or part of it): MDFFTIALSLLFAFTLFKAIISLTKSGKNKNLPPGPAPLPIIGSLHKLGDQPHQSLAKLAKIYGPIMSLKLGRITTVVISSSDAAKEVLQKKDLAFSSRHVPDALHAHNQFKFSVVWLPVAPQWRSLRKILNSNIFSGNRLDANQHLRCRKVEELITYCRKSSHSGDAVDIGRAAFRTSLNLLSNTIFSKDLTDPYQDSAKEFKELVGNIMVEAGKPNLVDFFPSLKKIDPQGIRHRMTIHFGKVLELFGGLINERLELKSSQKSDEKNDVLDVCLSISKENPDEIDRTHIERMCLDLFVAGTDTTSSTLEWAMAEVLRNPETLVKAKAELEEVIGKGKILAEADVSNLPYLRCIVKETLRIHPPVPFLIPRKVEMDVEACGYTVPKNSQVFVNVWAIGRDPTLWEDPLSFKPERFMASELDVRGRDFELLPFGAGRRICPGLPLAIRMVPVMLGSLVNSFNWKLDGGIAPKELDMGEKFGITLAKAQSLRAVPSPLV

CC(C)=CCC/C(C)=C/CO [geraniol]
HPLC detection of 10-hydroxygeraniol formed by purified recombinant protein: LjG10H exhibits catalytic activity in the conversion of geraniol to 10-hydroxygeraniol in vitro

Source: PMC11737341, “Cloning and functional verification of Geraniol-10-Hydroxylase gene in Lonicera japonica” (PeerJ, 2025)
